# Columns and labels:
# OmKAI2d10–OmSMAX1D1M = tested on: T1, OmKAI2d10–OmSMAX1D1M; assay: TR-FRET, ligand-induced KAI2d–SMAX1 D1M interaction; type: biochemical, Orobanche minor; settings: without rac-GR24; 300 min
# T1 construct: gene KAI2d10; KAI2d10 plus SMAX1 D1M domain only; ligand-induced complex in TR-FRET; borders and tags not given
# OmKAI2d3 = molecular target: T2, OmKAI2d3; assay: isothermal titration calorimetry; type: binding, Orobanche minor; settings: suggested allosteric site
# T2 construct: gene KAI2d3; soluble recombinant protein
# OmKAI2d3–OmSMAX1D1M = tested on: T3, OmKAI2d3–OmSMAX1D1M; assay: TR-FRET, ligand-induced KAI2d–SMAX1 D1M interaction; type: biochemical, Orobanche minor; settings: without rac-GR24; 300 min
# T3 construct: gene KAI2d3; KAI2d3 plus SMAX1 D1M domain only; ligand-induced complex in TR-FRET; borders and tags not given
# OmKAI2d9–OmSMAX1D1M = tested on: T4, OmKAI2d9–OmSMAX1D1M; assay: as above; type: biochemical, Orobanche minor; settings: without rac-GR24; 300 min
# T4 construct: gene KAI2d9; KAI2d9 plus SMAX1 D1M domain only; ligand-induced complex in TR-FRET; borders and tags not given
smiles,measurement,setting,value
CC/C=C\C[C@@H]1C(=O)C=C[C@@H]1CCCCCCCC(=O)O [cis-OPDA],EC50,OmKAI2d10–OmSMAX1D1M,104 µM
same,Kd,OmKAI2d3,19.8 µM
same,EC50,OmKAI2d3–OmSMAX1D1M,217 µM
same,EC50,OmKAI2d9–OmSMAX1D1M,197 µM

# Reference: paper doi:10.64898/2025.12.31.697154v2, “Two phytohormones synergistically induce parasitic weeds seed germination via KAI2d receptors” (biorxiv, 2026)
